Assay results as given in ChEMBL document CHEMBL5150010 (J Med Chem, 2021).

What was measured:
[1] = Inhibition of Influenza A virus H9N2-S2 Neuraminidase
[2] = Inhibition of Influenza A virus H5N1-1220 Neuraminidase
[3] = Inhibition of Influenza A virus H5N2 Neuraminidase
[4] = Inhibition of Influenza A virus H5N1 Neuraminidase
[5] = in vitro; details: dog, MDCK cells
[6] = Half life in Sprague-Dawley rat at 2 mg/kg, iv measured upto 24 hrs by LC-MS/MS analysis; type: ADME, organism-based; details: in vivo
[7] = Subacute toxicity in male Kunming mouse assessed as increase in body weight at 50 mg/kg, IG mesured every second day for 2 weeks; type: organism-based; details: in vivo, po, 336 h
[8] = Volume of distribution in Sprague-Dawley rat at 2 mg/kg, iv measured upto 24 hrs by LC-MS/MS analysis; type: ADME, organism-based; details: in vivo
[9] = biological target: T1, Cytochrome P450 1A2 (Homo sapiens, UniProt P05177)
T1 sequence (P05177 whole entry): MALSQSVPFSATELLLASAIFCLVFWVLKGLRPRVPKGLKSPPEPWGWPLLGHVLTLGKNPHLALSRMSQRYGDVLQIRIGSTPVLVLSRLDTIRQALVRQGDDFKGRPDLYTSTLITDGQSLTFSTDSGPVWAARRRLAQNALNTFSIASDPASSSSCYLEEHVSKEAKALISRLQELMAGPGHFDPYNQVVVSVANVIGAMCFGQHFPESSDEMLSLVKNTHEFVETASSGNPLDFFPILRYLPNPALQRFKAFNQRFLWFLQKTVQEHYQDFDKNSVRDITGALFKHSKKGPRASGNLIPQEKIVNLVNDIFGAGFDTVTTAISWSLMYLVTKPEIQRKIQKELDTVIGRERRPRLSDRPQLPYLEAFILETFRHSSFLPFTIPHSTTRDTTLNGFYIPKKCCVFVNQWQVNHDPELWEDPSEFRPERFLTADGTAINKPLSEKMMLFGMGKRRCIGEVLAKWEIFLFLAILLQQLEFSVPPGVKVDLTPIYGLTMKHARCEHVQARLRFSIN

[10] = in vivo; details: Sprague-Dawley, rat, iv, 2 mg/kg
[11] = Acute toxicity in Kunming mouse assessed as ruffled fur at 1000 mg/kg, IG observed upto 1 week; type: organism-based; details: in vivo, po, 168 h, time < 1 weeks
[12] = in vitro; details: human, liver microsomes
[13] = Oral bioavailability in Sprague-Dawley rat at 20 mg/kg measured upto 24 hrs by LC-MS/MS analysis; type: ADME, organism-based; details: in vivo
[14] = Tmax in Sprague-Dawley rat at 2 mg/kg, iv measured upto 24 hrs by LC-MS/MS analysis; type: ADME, organism-based; details: in vivo
[15] = biological target: Cytochrome P450 2C19 (Homo sapiens, UniProt P33261); type: ADME, microsomes, Liver, Microsome
[16] = Subacute toxicity in Kunming mouse assessed as animal death at 50 mg/kg, IG mesured every second day for 2 weeks; type: organism-based; details: in vivo, po, 336 h
[17] = Half life in Sprague-Dawley rat at 20 mg/kg, po measured upto 24 hrs by LC-MS/MS analysis; type: ADME, organism-based; details: in vivo
[18] = in vitro; details: human, liver microsomes; remark: listed apart in the source
[19] = in vivo; details: Sprague-Dawley, rat, iv, 2 mg/kg; remark: listed apart in the source
[20] = Acute toxicity in Kunming mouse assessed as anorexia at 1000 mg/kg, IG observed upto 1 week; type: organism-based; details: in vivo, po, 168 h, time < 1 weeks
[21] = in vivo; details: Sprague-Dawley, rat, po, 20 mg/kg
[22] = biological target: Cytochrome P450 3A4 (Homo sapiens, UniProt P08684)
[23] = Subacute toxicity in Kunming mouse assessed as water consumption at 50 mg/kg, IG mesured every second day for 2 weeks; type: organism-based; details: in vivo, po, 336 h
[24] = in vitro; details: human, liver microsomes; remark: listed apart in the source
[25] = Acute toxicity in Kunming mouse assessed as lethargy at 1000 mg/kg, IG observed upto 1 week; type: organism-based; details: in vivo, po, 168 h, time < 1 weeks
[26] = in vitro; details: human, liver
[27] = Subacute toxicity in female Kunming mouse assessed as increase in body weight at 50 mg/kg, IG mesured every second day for 2 weeks; type: organism-based; details: in vivo, po, 336 h
[28] = Tmax in Sprague-Dawley rat at 20 mg/kg, po measured upto 24 hrs by LC-MS/MS analysis; type: ADME, organism-based; details: in vivo
[29] = rat, in vivo, po, 20 mg/kg, 24 h
[30] = Subacute toxicity in Kunming mouse assessed as food consumption at 50 mg/kg, IG mesured every second day for 2 weeks; type: organism-based; details: in vivo, po, 336 h
[31] = Cmax in Sprague-Dawley rat at 2 mg/kg, iv measured upto 24 hrs by LC-MS/MS analysis; type: ADME, organism-based; set-up: time < 24 hrs, dose 2 mg/kg, route iv; details: in vivo
[32] = Acute toxicity in Kunming mouse assessed as animal death at 1000 mg/kg, IG observed upto 1 week; type: organism-based; details: in vivo, po, 168 h, time < 1 weeks
[33] = Acute toxicity in Kunming mouse assessed as increase in body weight at 1000 mg/kg, IG observed upto 1 week; type: organism-based; details: in vivo, po, 168 h, time < 1 weeks
[34] = in vitro; details: human, liver microsomes; remark: listed apart in the source
[35] = Cmax in Sprague-Dawley rat at 20 mg/kg, po measured upto 24 hrs by LC-MS/MS analysis; type: ADME, organism-based; set-up: dose 20 mg/kg, time < 24 hrs, route po; details: in vivo
[36] = biological target: Cytochrome P450 2C9 (Homo sapiens, UniProt P11712); type: ADME, microsomes, Liver, Microsome
[37] = Acute toxicity in Kunming mouse assessed as clonic convulsion at 1000 mg/kg, IG observed upto 1 week; type: organism-based; details: in vivo, po, 168 h, time < 1 weeks
[38] = biological target: Cytochrome P450 2D6 (Homo sapiens, UniProt P10635)
Sequence of Cytochrome P450 2D6 (P10635 whole entry): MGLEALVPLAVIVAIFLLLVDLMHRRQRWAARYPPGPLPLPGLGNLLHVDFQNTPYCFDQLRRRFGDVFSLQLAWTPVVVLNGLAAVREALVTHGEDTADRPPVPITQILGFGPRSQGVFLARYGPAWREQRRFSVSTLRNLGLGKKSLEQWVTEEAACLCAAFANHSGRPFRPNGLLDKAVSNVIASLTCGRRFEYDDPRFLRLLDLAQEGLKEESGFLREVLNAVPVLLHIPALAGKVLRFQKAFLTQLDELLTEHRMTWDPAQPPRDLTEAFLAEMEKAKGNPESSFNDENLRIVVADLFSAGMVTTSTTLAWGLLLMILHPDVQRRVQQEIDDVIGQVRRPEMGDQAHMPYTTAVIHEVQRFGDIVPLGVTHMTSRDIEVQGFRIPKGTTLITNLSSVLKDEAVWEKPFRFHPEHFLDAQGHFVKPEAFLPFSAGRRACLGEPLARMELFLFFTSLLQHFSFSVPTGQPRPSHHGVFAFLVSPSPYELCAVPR

Sequence of Cytochrome P450 2C9 (P11712 whole entry): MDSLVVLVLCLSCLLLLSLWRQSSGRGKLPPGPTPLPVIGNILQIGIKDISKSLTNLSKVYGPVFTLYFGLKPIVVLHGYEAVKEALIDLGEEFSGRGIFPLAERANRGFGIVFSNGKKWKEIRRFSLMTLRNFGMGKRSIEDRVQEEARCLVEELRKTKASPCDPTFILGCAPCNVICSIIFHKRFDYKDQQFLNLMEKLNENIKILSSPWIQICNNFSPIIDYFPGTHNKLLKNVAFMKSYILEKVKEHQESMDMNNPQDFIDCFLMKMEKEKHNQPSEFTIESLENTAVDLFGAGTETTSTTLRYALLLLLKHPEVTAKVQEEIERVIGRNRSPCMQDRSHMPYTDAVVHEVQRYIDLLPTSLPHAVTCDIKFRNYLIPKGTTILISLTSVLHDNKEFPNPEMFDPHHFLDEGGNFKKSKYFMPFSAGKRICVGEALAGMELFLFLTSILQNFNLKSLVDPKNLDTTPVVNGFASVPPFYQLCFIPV
Sequence of Cytochrome P450 3A4 (P08684 whole entry): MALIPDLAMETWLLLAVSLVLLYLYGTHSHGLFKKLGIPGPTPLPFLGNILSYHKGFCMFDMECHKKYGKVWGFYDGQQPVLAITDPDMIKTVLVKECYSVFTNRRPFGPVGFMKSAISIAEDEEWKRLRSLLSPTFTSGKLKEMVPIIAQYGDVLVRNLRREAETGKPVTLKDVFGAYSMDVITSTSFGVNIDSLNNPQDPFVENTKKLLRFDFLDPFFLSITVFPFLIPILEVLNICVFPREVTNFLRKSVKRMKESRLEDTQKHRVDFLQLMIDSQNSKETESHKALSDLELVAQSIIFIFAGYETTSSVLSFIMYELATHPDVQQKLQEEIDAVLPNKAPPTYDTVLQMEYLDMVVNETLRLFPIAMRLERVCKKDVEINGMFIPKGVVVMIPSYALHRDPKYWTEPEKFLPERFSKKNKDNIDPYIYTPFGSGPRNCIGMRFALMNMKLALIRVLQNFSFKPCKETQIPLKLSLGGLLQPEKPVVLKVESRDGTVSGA
Sequence of Cytochrome P450 2C19 (P33261 whole entry): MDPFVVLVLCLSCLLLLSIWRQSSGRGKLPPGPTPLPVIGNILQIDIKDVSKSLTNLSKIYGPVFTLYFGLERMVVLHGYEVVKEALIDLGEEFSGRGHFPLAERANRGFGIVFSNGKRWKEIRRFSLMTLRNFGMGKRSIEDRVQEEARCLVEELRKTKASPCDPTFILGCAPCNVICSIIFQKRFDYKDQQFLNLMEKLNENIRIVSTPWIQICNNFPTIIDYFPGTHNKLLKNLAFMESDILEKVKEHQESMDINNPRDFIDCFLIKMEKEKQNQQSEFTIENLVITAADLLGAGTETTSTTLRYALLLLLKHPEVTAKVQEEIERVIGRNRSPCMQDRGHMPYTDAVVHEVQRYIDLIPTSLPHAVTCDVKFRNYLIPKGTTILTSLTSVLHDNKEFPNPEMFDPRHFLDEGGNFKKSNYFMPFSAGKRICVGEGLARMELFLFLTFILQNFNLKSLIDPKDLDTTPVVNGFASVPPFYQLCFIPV

CCC(CC)O[C@@H]1C=C(C(=O)O)C[C@H](NCc2ccc(-c3ccccc3)cc2)[C@H]1NC(C)=O
IC50 [1]: 580 nM | IC50 [2]: 1.9 nM

CCC(CC)O[C@@H]1C=C(C(=O)O)C[C@H](NCc2ccc(Sc3ccccc3)cc2)[C@H]1NC(C)=O
IC50 [3]: 869 nM | IC50 [4]: 0.96 nM

CCC(CC)O[C@@H]1C=C(C(=O)O)C[C@H](NCc2ccc3oc4ccccc4c3c2)[C@H]1NC(C)=O
CC50 at 48 h [5]: 250 µM

CCC(CC)O[C@@H]1C=C(C(=O)O)C[C@H](NCc2ccc3c(c2)c2ccccc2n3CC)[C@H]1NC(C)=O
CC50 at 48 h [5]: 250 µM

CCC(CC)O[C@@H]1C=C(C(=O)O)C[C@H](NCc2ccc3sc4ccccc4c3c2)[C@H]1NC(C)=O
half-life [6]: 44.6 min | Activity [7]: Toxic | Vd [8]: 0.161 L/kg | IC50 [9]: 89.4 µM | AUC(0-inf) at 24 h [10]: 4290 ng·h/mL | Activity [11]: Non-Toxic | remaining at 1 h [12]: 84.7% | bioavailability [13]: 13.7% | Tmax [14]: 4.98 min | IC50 [15]: > 100 µM | Activity [16]: Non-Toxic | half-life [17]: 61.8 min | microsomal CLint [18]: < 9.6 µL/min/mg | AUC(0-t) at 24 h [19]: 4280 ng·h/mL | Activity [20]: Non-Toxic | AUC(0-t) at 24 h [21]: 5830 ng·h/mL | IC50 [22]: > 100 µM | Activity [23]: Non-Toxic | remaining at 1 h [24]: 99.6% | Activity [25]: Non-Toxic | CLint scaled [26]: < 8.6 mL/min/kg | Activity [27]: Toxic | Tmax [28]: 30 min | AUC [29]: 5854 ng·h/mL | Activity [30]: Non-Toxic | Cmax [31]: 13000 ng/mL | CC50 at 48 h [5]: 250 µM | Activity [32]: Non-Toxic | Activity [33]: Toxic | half-life [34]: > 145 min | Cmax [35]: 6300 ng/mL | IC50 [36]: 60.8 µM | Activity [37]: Non-Toxic | IC50 [38]: 58.9 µM

CCC(CC)O[C@@H]1C=C(C(=O)O)C[C@H](NCc2c3ccccc3cc3ccccc23)[C@H]1NC(C)=O
CC50 at 48 h [5]: 250 µM

CCC(CC)O[C@@H]1C=C(C(=O)O)C[C@H](NCc2ccc3c(c2)Cc2ccccc2-3)[C@H]1NC(C)=O
CC50 at 48 h [5]: 250 µM

O=C(O)Cc1ccccc1Nc1c(Cl)cccc1Cl [DICLOFENAC]
microsomal CLint [18]: 168 µL/min/mg | CLint scaled [26]: 151 mL/min/kg | half-life [34]: 8.2 min

CCC(CC)O[C@@H]1C=C(C(=O)O)C[C@H](N)[C@H]1NC(C)=O [OSELTAMIVIR CARBOXYLATE]
CC50 at 48 h [5]: 250 µM

C[C@]12CC[C@H]3[C@@H](CCC4=CC(=O)CC[C@@]43C)[C@@H]1CC[C@@H]2O [TESTOSTERONE]
remaining at 1 h [12]: 87.2% | microsomal CLint [18]: 73.6 µL/min/mg | remaining at 1 h [24]: 9.8% | CLint scaled [26]: 66.2 mL/min/kg | half-life [34]: 18.8 min
